Laboratory results as given in patent US8207167B2, “Aryl-phenyl-sulfonamide-phenylene compounds and their use” (PIMCO 2664 Limited, priority 2008, dated 2012).
Like-named read-outs stand apart in the source and are kept apart here.

Legend:
[1] = In vivo pharmacokinetics in rat, oral and intravenous; set-up: species or system Sprague-Dawley rats; conditions: 1 mg/kg
Method: Absorption and metabolic stability were studied using an in vivo pharmacokinetics assay. Drug levels were assessed using ultra-performance LC/TOF-MS.
Three male Sprague-Dawley rats, 200-300 g, were dosed per route. […] Test compound was formulated in 50:50 tetraethylene glycol:PBS for both routes. Animals were given free access to food throughout the study. On the day prior to dosing, the carotid artery was cannulated for sample collection and for the intravenous study, the jugular vein was cannulated to enable dosing.
Blood samples were taken from the carotid artery at the following time points and placed in heparinised tubes:
Oral dosing—predose, 0.25, 0.5, 1, 2, 4, 8 and 24 hours post dose.
IV dosing—predose, 0.08, 0.25, 0.5, 1, 2, 4 and 8 hours post dose.
Blood samples were centrifuged to obtain plasma, which was transferred to a separate container and frozen at −20° C.
Samples were thawed at room temperature and prepared by protein precipitation with acetonitrile in the ratio 1:2 with plasma, followed by centrifugation for 10 minutes at 16,100×g (Eppendorf 5415D, Eppendorf AG, Hamburg, Germany). The supernatants were collected for analysis. The standard samples were prepared similarly, after spiking blank rat plasma samples to study compound concentrations at 1, 2, 5, 10, 20, 50, 100, 200, 500 and 1000 ng/mL. In addition, extra samples were prepared from 0-1 hour i.v. samples by diluting 1/20 with 50% aqueous acetonitrile to avoid exceeding the linear range of the analytical method.
A Waters Acquity liquid ultra-performance chromatographic system (Waters Corp., Milford, Mass., USA) with autosampler, vacuum degasser and column oven was used. The analytical column used for all compounds was a Waters BEH C18, (2.1×50 mm, 1.7 μm, Waters Corp, Milford, Mass., USA) together with a 0.2 μm on-line filter before the column. The eluents were 0.1% acetic acid (A, pH 3.2) and methanol (B). Gradient elution from 5% to 60% B in two minutes was employed, followed by one minute gradient to 90% B and column equilibration. The flow rate was 0.5 mL/min and the column oven temperature was 35° C. The flow was directed to the MS via Water Acquity photo-diode-array (PDA) detector. LC/TOF-MS data were recorded with a Micromass LCT Premier XE time-of-flight (TOF) mass spectrometer (Micromass Ltd., Manchester, England) equipped with a LockSpray electrospray ionization source. A positive ionization mode of electrospray was used for all compounds. The mass range of m/z 100-900 was acquired. The W-option of the reflector was used, and the DRE (dynamic range enhancement) option was set to on. The mass spectrometer and HPLC system were operated under Micromass MassLynx 4.1 software. Leucine enkephalin ([M+H]^+ m/z 556.2771) was used as a lock mass compound for accurate mass measurements and was delivered into the LockSpray probe with a syringe pump. MassLynx 4.1 software was used for controlling the instrumentation and for data processing.
The pharmacokinetic parameters for the test compounds were calculated by WinNonlin Pro (Pharsight Corp, CA) using standard noncompartmental methods. The elimination phase half-life (t1/2) was calculated by least-squares regression analysis of the terminal linear part of the log concentration−time curve. The area under the plasma concentration−time curve (AUC) was determined by use of the linear trapezoidal rule up to the last measurable concentration and thereafter by extrapolation of the terminal elimination phase to infinity. The tentative oral bioavailability (F) was calculated by dividing the AUC (0-24 hours) after p.o. administration by the AUC (0-8 hours) after i.v. administration, i.e., F=AUC(p.o.)/AUC(i.v), and reported as percentages (%).

[2] = Human liver microsomal stability assay; format: in vitro ADME; conditions: pooled human liver microsomes 0.5 mg/mL, test compound 3 μM, 45 minute incubation, NADPH
Method: Initial screening of candidate compounds was performed using in vitro assays to determine potency, metabolic stability and solubility in biologically relevant fluids. Potency was assessed using a viability assay based on the survival of the J774 macrophage cell line. Macrophages are closely related to osteoclasts and have been used previously as a model system for osteoclast survival (see, e.g., Luckman et al., 1998). Like osteoclasts, J774 macrophages are dependent on continued NFκB activation for survival, thereby providing a valuable screen for compounds with anti-inflammatory activity. Metabolic stability was measured by determining the rate of disappearance of compound in the presence of human liver microsomal preparations, as quantified by LC-MS/MS. Solubility was measured by equilibration of the compound in fasted state simulated intestinal fluid (FaSSIF) and quantified by HPLC.
Metabolic stability of APSAP derivatives was measured by determination of the rate of compound disappearance when incubated in the presence of human liver microsomes. Liver microsomes are prepared from the endoplasmic reticulum of hepatocytes and are the primary source of the most important enzymes (cytochrome P450) involved in drug metabolism. Study of drug stability in the presence of liver microsomes is accepted as a valuable model permitting rapid prediction of in vivo drug stability.
Human liver microsomes were obtained from a commercial source. Test compounds (3 μM) were incubated with pooled liver microsomes (male and female). Samples were incubated for a 45 minute period and removed at 5 time points and test compounds were analysed by LC-MS/MS.
The final incubation volume was 25 μL. A control incubation was included for each compound tested, where 0.1 M phosphate buffer pH 7.4 was added instead of NADPH. The control compounds testosterone and 7-hydroxycoumarin were included in each experiment and all incubations were performed singularly for each compound.
Each compound was incubated for 0, 5, 15, 30, and 45 minutes. The control (minus NADPH) was incubated for 45 minutes only. The reactions were stopped by the addition of 50 μL methanol containing internal standard at the appropriate time points. The incubation plates were centrifuged at 2500 rpm for 20 minutes at 4° C. to precipitate the protein.
Following protein precipitation, the sample supernatants were combined in cassettes of up to 4 compounds and analysed using standard LC-MS/MS conditions.
From a plot of the natural logarithm of the peak area ratio (i.e., the ratio of compound peak area:internal standard peak area) against time, the gradient of the line was determined. Subsequently, half-life and intrinsic clearance were calculated using the equations below: Eliminated rate constant(k)=(−gradient). […] Intrinsic Clearance(CLint)([…])=(V×0.693)/t1/2. wherein V=Incubation volume(μL/mg microsomal protein). Pharmacokinetics Studies

## CNC(CO)c1cccc(NS(=O)(=O)c2ccc(-c3ccc(F)cc3F)cc2)c1 (stereo not shown) [ABD789, 2′,4′-Difluoro-N-(3-(2-hydroxy-1-(methylamino)ethyl)phenyl)biphenyl-4-sulfonamide]
[1]; i.v.
  AUC: 11900 ng/mL/min
[1]; male, Sprague-Dawley, plasma, iv, i.v., read-out: T½ (converted)
  half-life: 0.81 h
[1]; male, Sprague-Dawley, plasma, oral, read-out: Bioavailability F %
  bioavailability: 38%
[1]; male, Sprague-Dawley, plasma, po, following oral administration, read-out: extended half life (converted)
  half-life: 7.67 h
[1]; male, Sprague-Dawley, plasma, po, p.o., read-out: T½ (converted)
  half-life: 3.17 h
[1]; p.o.
  AUC: 1500 ng/mL/min
[2]
  T1/2: Stable
